In patent US20170183318A1, “AMIDE COMPOUNDS, METHODS FOR PREPARATION, AND USE THEREOF AS AGENTS FOR THE TREATMENT AND PREVENTION OF DISEASES CAUSED BY RNA- AND/OR DNA-CONTAINING VIRUSES, AND CONCOMITANT DISEASES” (OBSCHESTVO S OGRANICHENNOI OTVETSTVENNOSTIYU …, priority 2014, published 2017):
Like-named read-outs stand apart in the source and are kept apart here. Starred links: 1 amine or outer side, 2 acyl side, 3 side chain; linkers in the order of their positions; H or OH if unused. Non-standard residues stand in square brackets, D forms with d. Residues, ends and D or L forms follow the SMILES beside them. ξ: configuration not given here. Glutaryl = O=C(CCCC(=O)[*:2])[*:1]; ξH = NC(Cc1c[nH]cn1)C(=O)O

How the values were obtained:
[1] = system: human respiratory syncytial virus (strain A2); test: Antiviral activity against RS virus in a murine model of suppressed immune system (lung edema); format: in vivo; settings: Balb/c mice, cyclophosphan-suppressed, RS-virus pneumonia; 30 mg/kg once daily for 5 days; M ± SD, n = 5; scores from possible 4
Method: Antiviral activity of the chemical compounds against human respiratory syncytial virus (strain A2, an infectious titer of 5×10^6 TCID50/mL) was assessed in a Balb/c murine model of viral pneumonia. The virus was inoculated to animals intranasally in a volume of 50 μL under brief ether anesthesia. The immune response in animals to RS virus was suppressed by intraperitoneal administration of cyclophosphan at a dose of 100 mg/kg 5 days before infection. The studied compounds were administered according to the treatment regimen once daily at a dose of 30 mg/kg for 5 days, starting 24 hours after infection. The activity of the compounds was determined by a reduction in edema of the lung infected with respiratory syncytial virus, compared to the control, on day 5 after infection.

human virus hRSV = test: Antiviral activity against mouse-adapted RS virus (body weight; viral titer in lungs titrated in Hep-2 cells); format: in vivo, mice; settings: for Body weight of the mice on day 5 after infection with hRSV (M ± SD) / Body weight of the mice on day 7 after infection with hRSV (M ± SD) / hRSV in the lungs of mice, Day 5, lg / hRSV in the lungs of mice, Day 7, lg: compounds 30 mg/kg, Ribavirin 40 mg/kg; for Body weight of the mice on day 5 after infection with hRSV (M ± SD) / Body weight of the mice on day 7 after infection with hRSV (M ± SD): orally once daily for 5 days, n = 6; for hRSV in the lungs of mice, Day 5, lg / hRSV in the lungs of mice, Day 7, lg: 10% lung suspension titrated in Hep-2 cells (TCID); for log reduction at 30 mg/kg: human respiratory syncytial virus, HEp-2, po
Method: Antiviral effectiveness of the chemical compounds against RSV in an experimental murine model in vivo was determined for human virus hRSV that was previously adapted to the growth in mouse lungs. The animals were infected with the virus at a dose of 0.5 log TCID50 intranasally under brief ether anesthesia in a volume of 0.05 ml/mouse. The studied compounds were administered orally once daily for 5 days according to the treatment regimen at a dose of 30 mg/kg. The first administration was made 24 hours after infection. Normal saline solution was administered to mice as placebo. Intact animals served as a negative control and were hold in a separate room under the same conditions as the experimental animals. Each experimental group comprised 12 animals.
The antiviral activity of the studied compounds was determined by the efficiency in the prevention of weight loss and by suppression of the reproduction of hRSV in the mouse lungs by measuring a viral titer in the experimental groups relative to the control on days 5 and 7 after infection.
In addition, the therapeutic action of the compounds of general formula I was determined by their ability to suppress the reproduction of hRSV in the mouse lungs on days 5 and 7 after infection. The viral titer was determined by the titration of a 10% lung suspension in Hep-2 cell culture. The result was registered 2 days after the incubation at 37° C. by TCID.

[2] = system: Coxsackie A2 virus (strain HCXV A2); test: Antiviral activity against Coxsackie virus in vivo (mortality and life expectancy of infected mice); settings: for inhibition in vivo at 30 mg/kg / mortality at 30 mg/kg: Mus musculus, po; for inhibition in vivo at 30 mg/kg: 168 h, read-out: Protective index (%); for mortality at 30 mg/kg: 360 h, read-out: Total mortality, %; for Average life expectancy (days), Compared with control: difference vs virus control; for Average life expectancy (days), Relative: mice infected with 10LD50 HCXV A2
Method: In the study a trypsin-dependent strain HCXV A2 was used, previously adapted and causing death in mice from Coxsackie virus infection.
The experiment was carried out in white mice weighing 6 to 7 g. The animals were infected intramuscularly with a dose of 0.1 mL/mouse. The used infectious dose causing mortality in mice was 10LD50.
The ability of compounds to provide a therapeutic effect was determined by the mortality rate of HCXV A2 virus-infected mice in the experimental group relative to the group of untreated animals.
The studied compounds and placebo were administered orally according to the treatment regimen. Normal saline solution was administered to mice as placebo. Intact animals served as a negative control and were hold in a separate room under the same conditions as the experimental animals.
For the experiment, groups were formed with 14-15 animals each. Compounds were administered at a dose of 30 mg/kg of body weight. The studied compounds were administered orally once daily for 7 days (first administration was made 24 hours after infection). The animals were monitored for 15 days during which the animals were weighed and the mortality rate was registered every day.

[3] = 120 h, read-out: Suppression of the reproduction of hRSV in the lungs of mice, Day 5, Δlg
[4] = 168 h, read-out: Suppression of the reproduction of hRSV in the lungs of mice, Day 7, Δlg
[5] = 30 mg/kg orally once daily for 7 days, vs virus control
[6] = 30 mg/kg orally once daily for 7 days

O=C(O)CCCC(=O)NCCC1CNCCO1 (stereo not shown) [Compound 9]
Degree of lung edema on day 5 after infection, score [1]: 1.00 ± 0.17 score
Body weight of the mice on day 5 after infection with hRSV (M ± SD) (human virus hRSV): 15.75 ± 0.33
Body weight of the mice on day 7 after infection with hRSV (M ± SD) (human virus hRSV): 16.18 ± 0.29

O=C(O)CCCC(=O)NCCC1CCNC1 (stereo not shown) [Compound 1]
Degree of lung edema on day 5 after infection, score [1]: 1.3 ± 0.27 score
hRSV in the lungs of mice, Day 5, lg (human virus hRSV): 2.88 ± 0.59 lg
Body weight of the mice on day 5 after infection with hRSV (M ± SD) (human virus hRSV): 16.43 ± 0.14
hRSV in the lungs of mice, Day 7, lg (human virus hRSV): 1.46 ± 0.17 lg
Body weight of the mice on day 7 after infection with hRSV (M ± SD) (human virus hRSV): 17.98 ± 0.26
log reduction at 30 mg/kg (human virus hRSV; [3]): 1.73 ± 0.59
log reduction at 30 mg/kg (human virus hRSV; [4]): 2.34 ± 0.17

CC(C)(CCC(=O)NC(Cc1c[nH]cn1)C(=O)O)C(=O)O (stereo not shown) [Compound 75]
inhibition in vivo at 30 mg/kg [2, 5]: 50%
mortality at 30 mg/kg [2]: 35.7%
Average life expectancy (days), Compared with control [2, 6]: +14.3 days
Average life expectancy (days), Relative [2, 6]: 27.3 days

O=C(O)CCCC(=O)NCCc1cn2ccccc2n1 [Compound 139]
Degree of lung edema on day 5 after infection, score [1]: 1.75 ± 0.77 score

O=C(O)CCCC(=O)NCCC1CNC=N1 (stereo not shown) [Compound 4]
Degree of lung edema on day 5 after infection, score [1]: 1.95 ± 0.31 score
hRSV in the lungs of mice, Day 5, lg (human virus hRSV): 2.58 ± 0.51 lg
Body weight of the mice on day 5 after infection with hRSV (M ± SD) (human virus hRSV): 16.77 ± 0.20
hRSV in the lungs of mice, Day 7, lg (human virus hRSV): 1.38 ± 0.24 lg
Body weight of the mice on day 7 after infection with hRSV (M ± SD) (human virus hRSV): 17.08 ± 0.32
log reduction at 30 mg/kg (human virus hRSV; [3]): 2.02 ± 0.51
log reduction at 30 mg/kg (human virus hRSV; [4]): 2.58 ± 0.53

COC(=O)C(NC(=O)C(Cc1cnc[nH]1)NC(=O)CCCC(=O)O)C(C)C (stereo not drawn) [Compound 89] (Glutaryl-His-Val-OMe; configuration not given here)
Degree of lung edema on day 5 after infection, score [1]: 0.75 ± 0.17 score
inhibition in vivo at 30 mg/kg [2, 5]: 27%
mortality at 30 mg/kg [2]: 53.3%
Average life expectancy (days), Compared with control [2, 6]: +7.0 days
Average life expectancy (days), Relative [2, 6]: 17.7 days

O=C(O)CCCC(=O)NCCc1ncccn1 [Compound 12]
inhibition in vivo at 30 mg/kg [2, 5]: 45%
mortality at 30 mg/kg [2]: 40%
Average life expectancy (days), Compared with control [2, 6]: +14.2 days
Average life expectancy (days), Relative [2, 6]: 24.9 days

CC(C)C(NC(=O)C(Cc1cnc[nH]1)NC(=O)CCCC(=O)O)C(N)=O (stereo not drawn) [Compound 90] (Glutaryl-His-Val-NH2; configuration not given here)
inhibition in vivo at 30 mg/kg [2, 5]: 50%
mortality at 30 mg/kg [2]: 35.7%
Average life expectancy (days), Compared with control [2, 6]: +15.1 days
Average life expectancy (days), Relative [2, 6]: 25.9 days

O=C(O)CCCC(=O)NCCc1ccc(Cl)nc1 [Compound 36]
inhibition in vivo at 30 mg/kg [2, 5]: 27%
mortality at 30 mg/kg [2]: 53.3%
Average life expectancy (days), Compared with control [2, 6]: +6.0 days
Average life expectancy (days), Relative [2, 6]: 16.7 days

NC(=O)C(CO)NC(=O)C(Cc1cnc[nH]1)NC(=O)CCCC(=O)O (stereo not drawn) [Compound 96] (Glutaryl-His-Ser-NH2; configuration not given here)
Degree of lung edema on day 5 after infection, score [1]: 0.35 ± 0.11 score

O=C(O)CCCC(=O)NCCc1cncs1 [Compound 122]
hRSV in the lungs of mice, Day 5, lg (human virus hRSV): 3.04 ± 0.44 lg
Body weight of the mice on day 5 after infection with hRSV (M ± SD) (human virus hRSV): 16.93 ± 0.32
hRSV in the lungs of mice, Day 7, lg (human virus hRSV): 1.75 ± 0.41 lg
Body weight of the mice on day 7 after infection with hRSV (M ± SD) (human virus hRSV): 16.37 ± 0.21
log reduction at 30 mg/kg (human virus hRSV; [3]): 1.56 ± 0.44
log reduction at 30 mg/kg (human virus hRSV; [4]): 1.88 ± 0.47

O=C(O)CCCC(=O)NCCCc1ccccn1 [Compound 35]
Degree of lung edema on day 5 after infection, score [1]: 1.48 ± 0.17 score
inhibition in vivo at 30 mg/kg [2, 5]: 27%
mortality at 30 mg/kg [2]: 53.3%
Average life expectancy (days), Compared with control [2, 6]: +5.9 days
Average life expectancy (days), Relative [2, 6]: 16.6 days

NC(=O)CNC(=O)C(Cc1c[nH]cn1)NC(=O)CCCC(=O)O (stereo not shown) [Compound 184] (Glutaryl-[ξH]-Gly-NH2)
Degree of lung edema on day 5 after infection, score [1]: 1.00 ± 0.19 score

COC(=O)C(NC(=O)C(Cc1cnc[nH]1)NC(=O)CCCC(=O)O)C(C)O (stereo not drawn) [Compound 148] (Glutaryl-His-Thr-OMe; configuration not given here)
Degree of lung edema on day 5 after infection, score [1]: 2.00 ± 0.31 score

O=C(O)CCCC(=O)NCCc1cnon1 [Compound 29]
inhibition in vivo at 30 mg/kg [2, 5]: 50%
mortality at 30 mg/kg [2]: 35.7%
Average life expectancy (days), Compared with control [2, 6]: +13.7 days
Average life expectancy (days), Relative [2, 6]: 26.7 days

O=C(O)CCCC(=O)NCCCc1ccco1 [Compound 32]
inhibition in vivo at 30 mg/kg [2, 5]: 33%
mortality at 30 mg/kg [2]: 42.9%
Average life expectancy (days), Compared with control [2, 6]: +10.0 days
Average life expectancy (days), Relative [2, 6]: 22.2 days

CN(CCc1cnc[nH]1)C(=O)CCCC(=O)O [Compound 117]
hRSV in the lungs of mice, Day 5, lg (human virus hRSV): 3.00 ± 0.41 lg
Body weight of the mice on day 5 after infection with hRSV (M ± SD) (human virus hRSV): 16.07 ± 0.12
hRSV in the lungs of mice, Day 7, lg (human virus hRSV): 1.46 ± 0.24 lg
Body weight of the mice on day 7 after infection with hRSV (M ± SD) (human virus hRSV): 16.48 ± 0.28
log reduction at 30 mg/kg (human virus hRSV; [3]): 1.6 ± 0.41
log reduction at 30 mg/kg (human virus hRSV; [4]): 2.22 ± 0.34

COC(=O)C(C)NC(=O)C(Cc1cnc[nH]1)NC(=O)CCCC(=O)O (stereo not shown) [Compound 91]
Degree of lung edema on day 5 after infection, score [1]: 0.40 ± 0.11 score

O=C(O)CCCC(=O)NCCC1COCCN1 (stereo not shown) [Compound 10]
Body weight of the mice on day 5 after infection with hRSV (M ± SD) (human virus hRSV): 16.18 ± 0.29
Body weight of the mice on day 7 after infection with hRSV (M ± SD) (human virus hRSV): 16.53 ± 0.20

CC(CCC(=O)O)C(=O)NCCc1c[nH]cn1 (stereo not shown) [Compound 30]
inhibition in vivo at 30 mg/kg [2, 5]: 18%
mortality at 30 mg/kg [2]: 60%
Average life expectancy (days), Compared with control [2, 6]: +2.4 days
Average life expectancy (days), Relative [2, 6]: 13.1 days

O=C(O)CCCC(=O)NCCc1cccnn1 [Compound 13]
inhibition in vivo at 30 mg/kg [2, 5]: 36%
mortality at 30 mg/kg [2]: 46.7%
Average life expectancy (days), Compared with control [2, 6]: +8.3 days
Average life expectancy (days), Relative [2, 6]: 19.0 days

O=C(O)CCCC(=O)NCCc1ccc[nH]1 [Compound 14]
inhibition in vivo at 30 mg/kg [2]: 36%
mortality at 30 mg/kg [2]: 50%
Average life expectancy (days), Compared with control [2, 6]: +10.4 days
Average life expectancy (days), Relative [2, 6]: 21.4 days

O=C(O)CCCC(=O)NCCC1CNCCN1 (stereo not shown) [Compound 8]
Body weight of the mice on day 5 after infection with hRSV (M ± SD) (human virus hRSV): 15.18 ± 0.18
Body weight of the mice on day 7 after infection with hRSV (M ± SD) (human virus hRSV): 17.13 ± 0.27

O=C(O)CCCC(=O)OCCc1cnc[nH]1 [Compound 71]
inhibition in vivo at 30 mg/kg [2, 5]: 44%
mortality at 30 mg/kg [2]: 35.7%
Average life expectancy (days), Compared with control [2, 6]: +16.4 days
Average life expectancy (days), Relative [2, 6]: 28.6 days
